Source: patent US20250320184A1 (SIRONAX LTD., priority 2022, published 2025)

Biological target: T1, SARM1 (50-724) (Homo sapiens, UniProt Q6SZW1)
T1 sequence (Q6SZW1 50-724): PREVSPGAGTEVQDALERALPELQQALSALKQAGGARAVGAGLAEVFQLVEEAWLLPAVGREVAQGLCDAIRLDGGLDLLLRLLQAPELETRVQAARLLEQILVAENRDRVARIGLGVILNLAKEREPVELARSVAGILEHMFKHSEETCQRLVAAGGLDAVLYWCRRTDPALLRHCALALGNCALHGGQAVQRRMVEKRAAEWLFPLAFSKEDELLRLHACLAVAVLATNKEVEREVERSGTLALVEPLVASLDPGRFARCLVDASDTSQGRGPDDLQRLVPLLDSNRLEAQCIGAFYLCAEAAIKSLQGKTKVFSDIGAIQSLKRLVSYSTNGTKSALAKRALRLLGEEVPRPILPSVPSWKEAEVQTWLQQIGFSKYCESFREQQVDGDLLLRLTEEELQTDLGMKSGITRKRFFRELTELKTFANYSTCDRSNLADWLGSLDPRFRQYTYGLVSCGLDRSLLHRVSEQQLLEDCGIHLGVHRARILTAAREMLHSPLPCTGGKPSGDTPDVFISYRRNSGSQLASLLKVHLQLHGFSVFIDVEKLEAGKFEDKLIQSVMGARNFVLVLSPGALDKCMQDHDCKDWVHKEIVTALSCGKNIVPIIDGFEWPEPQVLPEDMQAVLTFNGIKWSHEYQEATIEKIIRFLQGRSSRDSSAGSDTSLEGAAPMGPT
Assay: biochemical
Description: An enzymatic assay was performed in a 384-well plate using Dulbecco's phosphate-buffered saline (PBS) as the reaction buffer. […] The reaction was initiated by adding a mixture of 200 μM nicotinamide mononucleotide (NMN) as activator and 100 μM NAD^+ as substrate. After 1 h of incubation at room temperature, the reaction was terminated with 10 times volume of 70% acetonitrile, then centrifuged at 3800 rpm for 10 min.

SMILES | IC50 [nM]
Cc1cc(F)cc(C(CO)Nc2ccc3c(c2)C(=O)NCC3)c1 (stereo not shown) [Example 163, 7-((1-(3-fluoro-5-methylphenyl)-2-hydroxyethyl)amino)-3,4-dihydroisoquinolin-1(2H)-one] | > 1000
CC1(C)CN(S(N)(=O)=O)c2cc(NS(=O)(=O)c3cccc(Cl)c3Cl)ccc21 [Compound 319, 6-((2,3-dichlorophenyl)sulfonamido)-3,3-dimethylindoline-1-sulfonamide] | < 100
Cc1c(F)ccc(C(C)Nc2ccc3cc[nH]c(=O)c3c2)c1Cl (racemic) [Example 192, 7-[1-(2-chloro-4-fluoro-3-methyl-phenyl)ethylamino]-2H-isoquinolin-1-one] | < 100
CC1(C)CN(C(=O)c2cc[nH]c(=O)c2)c2cc(NS(=O)(=O)c3cccc(Cl)c3Cl)ccc21 [Compound 326, 2,3-dichloro-N-(3,3-dimethyl-1-(2-oxo-1,2-dihydropyridine-4-carbonyl)indolin-6-yl)benzenesulfonamide] | < 100
Cc1c2ccc(NC(C)c3nc(Cl)c(Cl)s3)cc2nn1CC(N)=O (racemic) [Compound 312A, 2-(6-((1-(4,5-dichlorothiazol-2-yl)ethyl)amino)-3-methyl-2H-indazol-2-yl)acetamide] | < 100
Cc1cn[nH]c1-n1cnc2c(F)cc(NC(C)c3nc(Cl)c(Cl)s3)cc2c1=O (racemic) [Example 371, 6-((1-(4,5-dichlorothiazol-2-yl)ethyl)amino)-8-fluoro-3-(4-methyl-1H-pyrazol-5-yl)quinazolin-4(3H)-one] | < 100
O=c1[nH]cnc2ccc(NS(=O)(=O)c3cccc(Cl)c3Cl)cc12 [Compound 23, 2,3-dichloro-N-(4-oxo-3,4-dihydroquinazolin-6-yl)benzenesulfonamide] | 100 to 500
CC1(C)CN(C(N)=O)c2cc(NS(=O)(=O)c3cccc(Cl)c3Cl)ccc21 [Compound 242, 6-((2,3-dichlorophenyl)sulfonamido)-3,3-dimethylindoline-1-carboxamide] | < 100
CC(Nc1ccc2cc[nH]c(=O)c2c1)c1nn2c(c1Cl)CCCC2 (racemic) [Compound 232, 7-((1-(3-chloro-4,5,6,7-tetrahydropyrazolo[1,5-a]pyridin-2-yl)ethyl)amino)isoquinolin-1(2H)-one] | 100 to 500
CC(Nc1ccc2cc[nH]c(=O)c2c1)c1ccc(F)c(Cl)c1Cl (racemic) [Example 203, 7-[1-(2,3-dichloro-4-fluoro-phenyl)ethylamino]-2H-isoquinolin-1-one] | < 100
CC(Nc1ccc2cc[nH]c(=O)c2c1)c1ccccc1F (racemic) [Example 115, 7-((1-(2-fluorophenyl)ethyl)amino)isoquinolin-1(2H)-one] | > 1000
CC(Nc1ccc2cc[nH]c(=O)c2c1)c1cc(F)ccc1Cl (racemic) [Example 135, 7-((1-(2-chloro-5-fluorophenyl)ethyl)amino)isoquinolin-1(2H)-one] | < 100
CC1C(=O)Nc2cc(NS(=O)(=O)c3cccc(Cl)c3Cl)ccc21 (stereo not shown) [Compound 235] | < 100
Cc1c(F)cccc1S(=O)(=O)Nc1ccc2c(c1)CCCC2 [Compound 14, 3-fluoro-2-methyl-N-(5,6,7,8-tetrahydronaphthalen-2-yl)benzenesulfonamide] | 500 to 1000
CNC(=O)c1nn(C)c2ccc(NC(C)c3c(Cl)ccc(F)c3Cl)cc12 (racemic) [Compound 246, 5-((1-(2,6-dichloro-3-fluorophenyl)ethyl)amino)-N,1-dimethyl-1H-indazole-3-carboxamide] | < 100
Cc1c(F)cccc1S(=O)(=O)Nc1ccc2c(c1)CC(=O)NC2 [Compound 7, 3-fluoro-2-methyl-N-(3-oxo-1,2,3,4-tetrahydroisoquinolin-6-yl)benzenesulfonamide] | > 1000
O=c1[nH]ccc2ccc(NS(=O)(=O)c3c(F)ccc(Cl)c3Cl)cc12 [Compound 70, 2,3-dichloro-6-fluoro-N-(1-oxo-1,2-dihydroisoquinolin-7-yl)benzenesulfonamide] | < 100
[2H]C(C)(Nc1ccc2c(C)n(CC(N)=O)nc2c1)c1nc(Cl)c(Cl)s1 (single isomer, unassigned) [Compound 377] | < 100
Cc1n[nH]c(=O)c2nc(NC(C)c3c(Cl)ccc(F)c3Cl)ccc12 (racemic) [Compound 314, 2-((1-(2,6-dichloro-3-fluorophenyl)ethyl)amino)-5-methylpyrido[2,3-d]pyridazin-8(7H)-one] | < 100
Cc1c(F)cccc1S(=O)(=O)Nc1cccc(N2CCCC2=O)c1 [Compound 27, 3-fluoro-2-methyl-N-(3-(2-oxopyrrolidin-1-yl)phenyl)benzenesulfonamide] | > 1000

SMILES | IC50 [nM]
CC(Nc1ccc2snc(C(=O)N3CC(O)C3)c2c1)c1nc(Cl)c(Cl)s1 (racemic) [Compound 346, (5-((1-(4,5-dichlorothiazol-2-yl)ethyl)amino)benzo[d]isothiazol-3-yl)(3-hydroxyazetidin-1-yl)methanone] | < 100
Cn1ncc2ccc(NS(=O)(=O)c3cccc(Cl)c3Cl)cc21 [Compound 52, 2,3-dichloro-N-(1-methyl-1H-indazol-6-yl)benzenesulfonamide] | 100 to 500
CC(Nc1ccc2c(c1)C(=O)NCN2)c1ccc(F)c(Cl)c1Cl (racemic) [Example 157, 6-((1-(2,3-dichloro-4-fluorophenyl)ethyl)amino)-2,3-dihydroquinazolin-4(1H)-one] | 100 to 500
O=c1[nH]ccc2ccc(OC(CO)c3cccc(Cl)c3Cl)cc12 (stereo not shown) [Example 228, 7-(1-(2,3-dichlorophenyl)-2-hydroxyethoxy)isoquinolin-1(2H)-one] | 100 to 500
CC(C)(O)C(Nc1ccc2cc[nH]c(=O)c2c1)c1cccc(Cl)c1Cl (racemic) [Compound 253, 7-((1-(2,3-dichlorophenyl)-2-hydroxy-2-methylpropyl)amino)isoquinolin-1(2H)-one] | < 100
C[C@@H](Nc1ccc2cc[nH]c(=O)c2c1)c1nccc(Cl)c1Cl (single isomer, unassigned) [Example 194A, (S or R)-7-((1-(3,4-dichloropyridin-2-yl)ethyl)amino)isoquinolin-1(2H)-one] | < 100
Cc1sc(C(C)Nc2ccc3c(C)n(CC(N)=O)nc3c2)nc1Cl (single isomer, unassigned) [Compound 380] | < 100
O=C1Nc2cc(NS(=O)(=O)c3cccc(Cl)c3Cl)ccc2CO1 [Compound 224, 2,3-dichloro-N-(2-oxo-1,4-dihydro-2H-benzo[d][1,3]oxazin-7-yl)benzenesulfonamide] | < 100
Cc1cc(C)c(S(=O)(=O)Nc2ccc3c(c2)C(=O)NCC3)c(C)c1 [Example 10A, 2,4,6-trimethyl-N-(1-oxo-1,2,3,4-tetrahydroisoquinolin-7-yl)benzenesulfonamide] | 500 to 1000
CC(Nc1ccc2c(c1)C(=O)N(C(C)C(N)=O)C2(C)C)c1nc(Cl)c(Cl)s1 (mixture of isomers) [Compound 334, 2-(5-((1-(4,5-dichlorothiazol-2-yl)ethyl)amino)-1,1-dimethyl-3-oxoisoindolin-2-yl)propanamide] | < 100
CC(Nc1ccc2c(C(F)(F)F)n(CC(N)=O)nc2c1)c1nc(Cl)c(Cl)s1 (racemic) [Compound 366, 2-(6-((1-(4,5-dichlorothiazol-2-yl)ethyl)amino)-3-(trifluoromethyl)-2H-indazol-2-yl)acetamide] | < 100
O=S(=O)(Nc1cccc(-c2ncco2)c1)c1cccc(Cl)c1Cl [Compound 64, 2,3-dichloro-N-(3-oxazol-2-ylphenyl)benzenesulfonamide] | 100 to 500
CC[C@H](C(N)=O)c1ccc(N[C@H](C)c2nc(Cl)c(Cl)s2)cc1 (single isomer, unassigned) [Compound 302A] | > 1000
CCC(Nc1ccc2c(c1)C(=O)NCC2)c1nccc(Cl)c1Cl (racemic) [Example 154, 7-((1-(3,4-dichloropyridin-2-yl)propyl)amino)-3,4-dihydroisoquinolin-1(2H)-one] | 100 to 500
O=S(=O)(Nc1ccc(Cc2cncs2)cc1)c1cccc(Cl)c1Cl [Compound 251, 2,3-dichloro-N-(4-(thiazol-5-ylmethyl)phenyl)benzenesulfonamide] | < 100
CC1(C)C(=O)N(CCCC(N)=O)c2cc(NS(=O)(=O)c3cccc(Cl)c3Cl)ccc21 [Compound 280, 4-(6-((2,3-dichlorophenyl)sulfonamido)-3,3-dimethyl-2-oxoindolin-1-yl)butanamide] | < 100
CC(Nc1ccc2nc[nH]c(=O)c2c1)c1c(Cl)ccc(Cl)c1Cl (racemic) [Example 195, 6-((1-(2,3,6-trichlorophenyl)ethyl)amino)quinazolin-4(3H)-one] | < 100
CC(Nc1ccc2cc[nH]c(=O)c2c1)c1nc(Cl)c(Cl)n1C (racemic) [Compound 233, 7-((1-(4,5-dichloro-1-methyl-1H-imidazol-2-yl)ethyl)amino)isoquinolin-1(2H)-one] | 100 to 500
Cc1cc(F)cc(C(Cc2ccccc2)Nc2ccc3c(c2)C(=O)NCC3)c1 (racemic) [Example 127, 7-((1-(3-fluoro-5-methylphenyl)-2-phenylethyl)amino)-3,4-dihydroisoquinolin-1(2H)-one] | > 1000
CC(Nc1ccc2nc[nH]c(=O)c2n1)c1c(F)ccc(Cl)c1Cl (single isomer, unassigned) [Compound 387] | < 100
